According to US7897765B2, “Therapeutic compounds and uses thereof” (Elixir Pharmaceuticals, Inc., priority 2003, dated 2011):

The molecules below were run against GHS-R (Homo sapiens, UniProt Q92847) (assay: cell based assay of GHS-R antagonist/agonist activity). Conditions: GHS-R antagonist Ki and/or agonist EC50 class.
Design: key: A refers to a compound having antagonist activity with Ki<100 nM in a cell based assay; B refers to a compound having agonist activity with EC50<100 nM in a cell based assay; C refers to a compound having antagonist activity of Ki>100 nM and <1500 nM in a cell based assay; D refers to a compound having antagonist activity with Ki, <100 nM and agonist activity with EC50<100 nM in a cell-based assay; E refers to other exemplary compounds
Method: Cell-Based Activity Assays. For example, the ability of the compound to modulate accumulation of a second messenger signaling component downstream of GHS-R can be evaluated. For example, inositol phosphates (IP), as a result of Gq signaling in a mammalian cell, e.g., a Cos-7 cells. Other tissue culture cells, Xenopus oocytes, and primary cells can also be used.
Phosphatidylinositol turnover assay. One day after transfection COS-7 cells are incubated for 24 hours with 5 μCi of [^3H]-myo-inositol in 1 ml medium supplemented with 10% fetal calf serum, 2 mM glutamine and 0.01 mg/ml gentamicin per well. Cells are then washed twice in buffer, 20 mM HEPES, pH 7.4, supplemented with 140 mM NaCl, 5 mM KCl, 1 mM MgSO4, 1 mM CaCl2, mM glucose, 0.05% (w/v) bovine serum; and incubated in 0.5 ml buffer supplemented with 10 mM LiCl at 37° C. for 30 min. For some assays, it is also useful to incubate the cells with adenosine deaminase ADA (200 U/mg, Boehringer Mannheim, Germany) for 30 min in a concentration of 1 U/ml.
After incubation with the compound of interest for 45 min at 37° C., cells are extracted with 10% ice-cold perchloric acid and placed on ice for 30 min. The resulting supernatants are neutralized with KOH in HEPES buffer, and [^3H]-inositol phosphate is purified on Bio-Rad AG 1-X8 anion exchange resin as described. Assays can be run in duplicate, triplicate, etc.
Other second messenger assays. Another second messenger that can be evaluated is Ca^2+. Ca^2+ mobilization can be evaluated using a calcium sensitive detector, such as aequorin protein or a dye, e.g., FURA-2. In an exemplary assay, calcium mobilization is evaluated in a recombinant cell that expresses GHS-R and aequorin.
Gene expression assay. HEK293 cells (30 000 cells/well) seeded in 96-well plates are transiently transfected with a mixture of pFA2-CREB and pFR-Luc reporter plasmid (PathDetect™ CREB trans-Reporting System, Stratagene) and nucleic acid encoding GHS. One day after transfection, cells are treated with the compound of interest in an assay volume of 100 μl medium for 5 hrs. After treatment, cells are cultured in low serum (2.5%). After the incubation period, the assay is ended by washing the cells twice with PBS and adding 100 μl luciferase assay reagent (LucLite™, Packard Bioscience). Luminescence is measured (e.g., as relative light units (RLU)) using in a luminometer such as the TopCounter™ (Packard Bioscience) for 5 sec.
IC50 and EC50 values can be determined by nonlinear regression, e.g., using the Prism 3.0 software (GraphPad Software, San Diego).

Sequence of GHS-R (Q92847 whole entry, species assumed): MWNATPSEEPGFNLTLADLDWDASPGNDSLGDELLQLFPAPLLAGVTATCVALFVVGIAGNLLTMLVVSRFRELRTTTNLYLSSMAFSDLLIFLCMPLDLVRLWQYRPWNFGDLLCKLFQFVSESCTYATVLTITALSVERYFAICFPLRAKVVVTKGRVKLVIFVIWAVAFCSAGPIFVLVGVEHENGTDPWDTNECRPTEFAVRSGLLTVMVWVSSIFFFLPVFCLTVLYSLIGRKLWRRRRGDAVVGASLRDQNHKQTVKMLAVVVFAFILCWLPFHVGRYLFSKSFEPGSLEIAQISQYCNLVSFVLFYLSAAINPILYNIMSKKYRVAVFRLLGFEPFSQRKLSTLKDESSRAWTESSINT

Q: How did the Activity turn out when `CS(=O)(=O)N1CC2(CCN(C(=O)[C@@H](COCc3ccccc3)NC(=O)C3CNC3)CC2)c2ccccc21` [Compound 36] was run?
A: C (C refers to a compound having antagonist activity of Ki>100 nM and <1500 nM in a cell based assay)

Q: How did the Activity turn out when `CS(=O)(=O)N1CC2(CCN(C(=O)[C@@H](COCc3ccccc3)NS(=O)(=O)CCN3CCCCC3)CC2)c2ccccc21.Cl` [Compound 37] was run?
A: C (C refers to a compound having antagonist activity of Ki>100 nM and <1500 nM in a cell based assay)

Q: For `CCCN1CCC(C(=O)N[C@H](COCc2ccccc2)C(=O)N2CCC3(CC2)CN(S(C)(=O)=O)c2ccccc23)CC1` [Compound 38], which Activity is on record?
A: C (C refers to a compound having antagonist activity of Ki>100 nM and <1500 nM in a cell based assay)

Q: For `CS(=O)(=O)N1CC2(CCN(C(=O)[C@@H](COCc3ccccc3)NC(=O)CN3CCC3)CC2)c2ccccc21` [Compound 39], which Activity is on record?
A: C (C refers to a compound having antagonist activity of Ki>100 nM and <1500 nM in a cell based assay)

Q: How did the Activity turn out when `CN(C)Cc1ccc(C(=O)N[C@H](COCc2ccccc2)C(=O)N2CCC3(CC2)CN(S(C)(=O)=O)c2ccccc23)cc1` [Compound 40] was run?
A: C (C refers to a compound having antagonist activity of Ki>100 nM and <1500 nM in a cell based assay)

Q: Which Activity does the source give for `CS(=O)(=O)N1CC2(CCN(C(=O)[C@@H](COCc3ccccc3)NC(=O)NCCO)CC2)c2ccccc21` [Compound 41] here?
A: C (C refers to a compound having antagonist activity of Ki>100 nM and <1500 nM in a cell based assay)

Q: How did the Activity turn out when `CN1CCC(C(=O)N[C@@H](Cc2ccccc2)C(=O)N2CCC3(CC2)CN(S(C)(=O)=O)c2ccccc23)CC1` [Compound 42] was run?
A: C (C refers to a compound having antagonist activity of Ki>100 nM and <1500 nM in a cell based assay)

Q: `CC(C)CCN1CCC(C(=O)N[C@H](COCc2ccccc2)C(=O)N2CCC3(CC2)CN(S(C)(=O)=O)c2ccccc23)CC1` [Compound 43] was tested. Which Activity did it give?
A: C (C refers to a compound having antagonist activity of Ki>100 nM and <1500 nM in a cell based assay)

Q: For `CC(C)(C)C(=O)N[C@H](COCc1ccccc1)C(=O)N1CCC2(CC1)CN(S(C)(=O)=O)c1ccccc12` [Compound 44], which Activity is on record?
A: C (C refers to a compound having antagonist activity of Ki>100 nM and <1500 nM in a cell based assay)

Q: With `CN1CCC(C(=O)N[C@H](Cc2ccccc2)C(=O)N2CCC3(CC2)CN(S(C)(=O)=O)c2ccccc23)CC1` [Compound 45] as the molecule, how does the Activity read?
A: C (C refers to a compound having antagonist activity of Ki>100 nM and <1500 nM in a cell based assay)

Q: With `CN1CCN(CCS(=O)(=O)N[C@H](COCc2ccccc2)C(=O)N2CCC3(CC2)CN(S(C)(=O)=O)c2ccccc23)CC1` [Compound 46] as the molecule, how does the Activity read?
A: C (C refers to a compound having antagonist activity of Ki>100 nM and <1500 nM in a cell based assay)

Q: For `CN(C)CC(=O)N[C@H](COCc1ccccc1)C(=O)N1CCC2(CC1)CN(S(=O)(=O)CC(F)(F)F)c1ccccc12` [Compound 47], which Activity is on record?
A: C (C refers to a compound having antagonist activity of Ki>100 nM and <1500 nM in a cell based assay)

Q: With `CN1CC2(CCN(C(=O)[C@@H](COCc3ccccc3)NC(=O)OC(C)(C)C)CC2)c2ccccc21` [Compound 48] as the molecule, how does the Activity read?
A: C (C refers to a compound having antagonist activity of Ki>100 nM and <1500 nM in a cell based assay)

Q: Which Activity does the source give for `CC(C)N1CC=C(C(=O)N[C@H](COCc2ccccc2)C(=O)N2CCC3(CC2)CN(S(C)(=O)=O)c2ccccc23)CC1.Cl` [Compound 49] here?
A: C (C refers to a compound having antagonist activity of Ki>100 nM and <1500 nM in a cell based assay)

Q: With `CC(C)(C)OC(=O)NC(C)(C)C(=O)N[C@H](COCc1ccccc1)C(=O)N1CCC2(CC1)CN(S(C)(=O)=O)c1ccccc12` [Compound 50] as the molecule, how does the Activity read?
A: E

Q: `CC(=O)N[C@H](COCc1ccccc1)C(=O)N1CCC2(CC1)CN(S(C)(=O)=O)c1ccccc12` [Compound 51] was tested. Which Activity did it give?
A: E

Q: Which Activity does the source give for `CC(C)(C)CC(=O)N[C@H](COCc1ccccc1)C(=O)N1CCC2(CC1)CN(S(C)(=O)=O)c1ccccc12` [Compound 52] here?
A: E

Q: Which Activity does the source give for `CS(=O)(=O)N1CC2(CCN(C(=O)[C@@H](COCc3ccccc3)NC(=O)c3ccccn3)CC2)c2ccccc21` [Compound 53] here?
A: E
